From US20240116910A1, “Heterocycles as WIP1 Inhibitors” (PMV Pharmaceuticals, Inc., priority 2022, published 2024)

Biological target: recombinant His-tag Wip1(2-420) protein (amino acids #2-420) (Homo sapiens (Human), UniProt O15297)
Test: Wip1(2-420) phosphatase enzyme FDP assay
Type: biochemical
Details: fluorescein diphosphate (FDP) substrate, RT 2 hours, fluorescence Ex485/Em535; read-out: WIP1 (Truncated 2-420) FDP Assay: IC50
Procedure: The Human Wip1 (2-420, aa 2-420) or Wip1 full length (aa 1-605) DNA sequence was codon optimized and synthesized by Genscript for insect cell expression. The open reading frame of Wip1(2-420) with a N-terminal-His6 affinity tag followed by a TEV cleavage site was subcloned sites into the pFastBac1 expression vector. The recombinant bacmid DNA was transfected in Sf9 insect cells for baculovirus production. After 72 hours infection, the Sf9 cells were harvested by centrifugation and resuspended in lysis buffer containing 50 mM Tris/HCl, pH 8.0, 500 mM NaCl, 20% glycerol, Benzonase 0.5% CHAPS and Roche cOmplete™ EDTA free protease inhibitors. Cells were disrupted with microfluidizer and the debris was removed by centrifugation at 185,000 g for 1 hour. The supernatant was subjected to HisTrap FF for affinity purification. Proteins were eluted with a linear gradient of 0-500 mM imidazole in HisTrap buffer containing 50 mM Tris/HCl, pH 8.0, 500 mM NaCl and 20% glycerol, 0.05% CHAPS. The eluted protein was dialyzed against dialysis buffer (20 mM MES, 100 mM NaCl, 20% glycerol, 0.5 mM TCEP, 0.05% CHAPS) followed purification via HiTrap SP HP column. The protein was eluted with a gradient of 100 mM-2 M NaCl in dialysis buffer. His6-[…] was finally concentrated and loaded onto a size-exclusion column (NiLoad 16/600 Superdex 200 pg, GE Healthcare) pre-equilibrated with 50 mM MOPS (pH 7.5), 200 mM NaCl, 20% glycerol, 1 mM TCEP, 0.05% CHAPS and 0.1 mM EGTA. The peak fractions containing purified Nis6-Wip1(2-420) were pooled and concentrated to 1.0 mg/mL and flash frozen at −80° C.
Wip1 Length and Wip1(2-420) Phosphatase Enzyme FDP Assays.
Test compounds (252 mM stock in DMSO) were diluted 3 folds in series in DMSO and 1.2 μl per well were added into 384-well polypropylene black plates (Nunc). Twelve μl per well of Assay Buffer (100 mM NaCl, 50 mM MOPS, pH 7.5, 0.8 mM CHAPS, 0.1 mM EGTA, 30 mM MgCl2, 0.3 mM TCEP, 0.2 mg/mL BSA) was added followed by […] per well of 50.4 nM recombinant His-tag Wip1 full length protein (amino acids #1-605) or recombinant His-tag Wip1(2-420) protein (amino acids #2-420) in Assay Buffer and the plate was incubated at RT (22° C.) for 5 min. Ten mM of fluorescein diphosphate (FDP) in DMSO was diluted to […] in Assay Buffer and […] per well was added to the plate and incubated at RT (22° C.) for 2 hours. […] per well of 64.1 mM EDTA in water were added to stop the enzyme reaction. The plate was centrifuged at 1,200 rpm (Eppendorf 5810R Plate centrifuge) for 1 minute and fluorescence intensity (Ex485/Em535) was measured on Perkin Elmer Victor Reader. EC50 values were calculated using either Prism (GraphPad) or ActivityBase software (IDBS), The IC50 results are provided in Table M.

recombinant His-tag Wip1(2-420) protein (amino acids #2-420), sequence (O15297 2-420): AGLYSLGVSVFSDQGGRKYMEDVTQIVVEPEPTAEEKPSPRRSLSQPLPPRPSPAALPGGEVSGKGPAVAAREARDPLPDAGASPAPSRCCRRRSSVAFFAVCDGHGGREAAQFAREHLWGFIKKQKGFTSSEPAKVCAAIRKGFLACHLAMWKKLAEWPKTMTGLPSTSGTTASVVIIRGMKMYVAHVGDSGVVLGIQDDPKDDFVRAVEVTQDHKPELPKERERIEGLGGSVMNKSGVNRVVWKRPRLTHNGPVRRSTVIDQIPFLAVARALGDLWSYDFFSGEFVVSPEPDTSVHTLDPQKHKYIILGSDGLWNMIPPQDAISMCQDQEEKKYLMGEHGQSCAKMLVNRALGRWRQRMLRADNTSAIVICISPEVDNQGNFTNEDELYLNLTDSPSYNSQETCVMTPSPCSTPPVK

SMILES | IC50 [nM]
Cc1ncc(Cl)cc1N[C@@H](C)c1ccc(C(=O)N[C@@H](CC2CCCC2)C(=O)NC2CCC2)s1 [Compound 87, (2S)-2-({5-[(1S)-1-[(5-chloro-2-methylpyridin-3-yl)amino]ethyl]thiophen-2-yl}formamido)-N-cyclobutyl-3-cyclopentylpropanamide] | 5
Cc1ncc(Cl)cc1N[C@H](C)c1ncc(C(=O)N[C@@H](CC2CCCC2)C(=O)NC23CC(C2)C3)s1 [Compound 126, (2S)-N-{bicyclo[1.1.1]pentan-1-yl}-2-({2-[(1R)-1-[(5-chloro-2-methylpyridin-3-yl)amino]ethyl]-1,3-thiazol-5-yl}formamido)-3-cyclopentylpropanamide] | 1020
CC[C@@H](Nc1cc(Cl)cnc1C)c1ccc(C(=O)N[C@@H](CC2CCCC2)C(=O)NC23CC(C2)C3)s1 [Compound 67, (2S)-N-{bicyclo[1.1.1]pentan-1-yl}-2-({5-[(1R)-1-[(5-chloro-2-methylpyridin-3-yl)amino]propyl]thiophen-2-yl}formamido)-3-cyclopentylpropanamide] | 270
Cc1ncc(Cl)cc1N[C@H](c1ccc(C(=O)N[C@@H](CC2CCCC2)C(=O)NC2CC2)s1)C(F)(F)F [Compound 185, (2S)-2-({5-[(1S)-1-[(5-chloro-2-methylpyridin-3-yl)amino]-2,2,2-trifluoroethyl]thiophen-2-yl}formamido)-3-cyclopentyl-N-cyclopropylpropanamide] | 61
COCCN1CCCc2cc(NC(=O)[C@H](CC3CCCC3)NC(=O)c3ccc([C@H](C)Nc4cc(Cl)cnc4C)s3)ccc21 [Compound 129, (2S)-2-({5-[(1S)-1-[(5-chloro-2-methylpyridin-3-yl)amino]ethyl]thiophen-2-yl}formamido)-3-cyclopentyl-N-[1-(2-methoxyethyl)-1,2,3,4-tetrahydroquinolin-6-yl]propanamide] | 7
Cc1ncc(Cl)cc1NC(C)(C)c1ccc(C(=O)N[C@@H](CC2CCCC2)C(=O)N[C@H]2C[C@H](F)C2)s1 [Compound 275, (2S)-2-[(5-{2-[(5-chloro-2-methylpyridin-3-yl)amino]propan-2-yl}thiophen-2-yl)formamido]-3-cyclopentyl-N-[(1r,3r)-3-fluorocyclobutyl]propanamide] | 10
COc1ccccc1-c1ncc(Cl)cc1N[C@H](C)c1ccc(C(=O)N[C@@H](CC2CCCC2)C(=O)NC2CC2)s1 [Compound 241, (2S)-2-({5-[(1R)-1-{[5-chloro-2-(2-methoxyphenyl)pyridin-3-yl]amino}ethyl]thiophen-2-yl}formamido)-3-cyclopentyl-N-cyclopropylpropanamide] | 330
Cc1ncc(Cl)cc1N[C@@H](C)c1ccc(C(=O)N[C@@H](C[C@H]2CCC3CC32)C(=O)NC23CC(C2)C3)s1 (stereo partly drawn) [Compound 244, (2S)-N-{bicyclo[1.1.1]pentan-1-yl}-3-[(2R)-bicyclo[3.1.0]hexan-2-yl]-2-({5-[(1S)-1-[(5-chloro-2-methylpyridin-3-yl)amino]ethyl]thiophen-2-yl}formamido)propanamide] | 5
Cc1ncc(Cl)cc1N[C@@H](C)c1ncc(C(=O)N[C@@H](CC2CCCC2)C(=O)NC2CC2)s1 [Compound 311, (2S)-2-({2-[(1S)-1-[(5-chloro-2-methylpyridin-3-yl)amino]ethyl]-1,3-thiazol-5-yl}formamido)-3-cyclopentyl-N-cyclopropylpropanamide] | 1550
Cc1ncc(Cl)cc1N[C@@H](C)c1ccc(C(=O)N[C@H](C(=O)NC23CC(C2)C3)C(C)(C)C)s1 [Compound 246, (2S)-N-{bicyclo[1.1.1]pentan-1-yl}-2-({5-[(1S)-1-[(5-chloro-2-methylpyridin-3-yl)amino]ethyl]thiophen-2-yl}formamido)-3,3-dimethylbutanamide] | 2210
Cc1ncc(Cl)cc1N[C@@H](C)c1ccc(C(=O)N[C@@H](CC2CCCC2)C(=O)Nc2cnn(CCF)c2)s1 [Compound 141, (2S)-2-({5-[(1S)-1-[(5-chloro-2-methylpyridin-3-yl)amino]ethyl]thiophen-2-yl}formamido)-3-cyclopentyl-N-[1-(2-fluoroethyl)-1H-pyrazol-4-yl]propanamide] | 5
